# Publication PMC3832641, “Inhibition of Leishmania (Leishmania) amazonensis and Rat Arginases by Green Tea EGCG, (+)-Catechin and (−)-Epicatechin: A Comparative Structural Analysis of Enzyme-Inhibitor Interactions” (PLoS ONE, 2013)
# Assays:
# [1] = target: T1, recombinant arginase from Leishmania amazonensis (ARG-L) (Leishmania amazonensis, UniProt O96394); experiment: ARG-L enzyme kinetics: Ki, Ki' and mechanism of inhibition (Dixon and Cornish-Bowden plots); assay type: biochemical; settings: for Ki': Cornish-Bowden plot, dissociation constant of enzyme-inhibitor-substrate complex; for Ki' / Ki: mean ± SEM; for Mode of inhibition: Dixon and Cornish-Bowden plots; for Ki: Dixon plot, dissociation constant of enzyme-inhibitor complex
# Method: All reactions were performed in CHES buffer, 50 mM, pH 9.5, containing various concentrations of the substrate L-[…].5, 25, 50 and 100 mM) at pH 9.5. Inhibitors were used at three different concentrations similar to the IC50. The different substrate and inhibitor concentrations were obtained by serial dilution. A mixture, M1, containing L-arginine (pH 9.5) at double the desired concentration and a second mixture, M2, containing the enzyme (2000 units) diluted in 125 mM CHES buffer (pH 9.5) were prepared. The reaction mixture was obtained by homogenizing 50 μL of M1, 10 μL of inhibitor and adding 40 μL of M2. The addition of M2 was synchronized every 15 seconds, followed by immediate incubation in a water bath for 15 minutes at 37°C. The urea produced was analyzed as described above. […] Each constant was determined by calculating X values at the intersection points between two lines obtained by linear regression. […] Ki and Ki' is a positive value of the calculated X (Ki = -X). For three different values of S, three lines were drawn for 1/v against i (Dixon plot) and three lines for S/v against i (Cornish-Bowden plot). In the Dixon plot, the lines intersect at a point where i = -Ki and 1/v = [1- (Ki/Ki')]/Vmax; in the Cornish-Bowden plot, they intersect at a point where i = -Ki' and S/v = KM[1- (Ki'/Ki)]/Vmax. To make wizard Ki and Ki' calculations, linear data fitting was performed using Microsoft Office Excel v.2013. The linear equations were obtained by linear regression R^2>0.85. Linear regression retrieved the linear equation y(n) = […]), which calculates the reciprocal of the ratio of reaction 1/v (y(n)) as a function of variable inhibitor concentration (x(n)). The term b(n) is the reciprocal of the maximum ratio of reaction (1/Vmax) obtained at a fixed S concentration and variable i concentration. The Dixon and Cornish-Bowden plots were constructed using a mean of each point obtained from three independent experiments performed in duplicate. Three interception points were obtained by the combination of two linear equations for each time point. Then, Ki and Ki' were calculated using equation (7) and were expressed as mean values ± SEM (standard error of the mean).
# [2] = target: T1, recombinant arginase from Leishmania amazonensis (ARG-L); experiment: biochemical
# [3] = target: T2, rat liver arginase (ARG-1) (Rattus norvegicus, UniProt P07824); experiment: Inhibition of rat liver arginase (ARG-1); assay type: biochemical; settings: for Inhibition of ARG-1: inhibitors at 10 µM or 100 µM; for inhibition at 1000 µM: inhibitors at 1000 µM
# T2 construct: Rat liver arginase (ARG-1) was prepared by lysing 5 g of liver cells; from tissue; host or cells: rat liver
# T2 sequence (P07824 1-323): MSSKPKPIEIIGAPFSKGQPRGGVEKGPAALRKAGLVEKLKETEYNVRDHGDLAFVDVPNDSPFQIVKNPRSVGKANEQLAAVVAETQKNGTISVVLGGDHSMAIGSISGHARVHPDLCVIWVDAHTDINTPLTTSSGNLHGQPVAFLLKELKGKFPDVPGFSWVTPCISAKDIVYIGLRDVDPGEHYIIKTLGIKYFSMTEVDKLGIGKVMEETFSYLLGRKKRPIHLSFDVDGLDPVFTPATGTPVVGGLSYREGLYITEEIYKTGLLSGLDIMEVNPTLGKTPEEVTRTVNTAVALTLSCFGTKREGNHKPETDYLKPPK
# [4] = system: L. (L.) donovani amastigotes; design: method as in PMID 16569852; settings: cited from earlier work
# L. (L.) amazonensis = system: L. (L.) amazonensis; design: method as in PMID 22735546; settings: cited from earlier work
structure (smiles),measurement,setting,value
O=C(O)c1cc(O)c(O)c(O)c1 [Gallic acid],Ki',[1],7.2 ± 1.4 µM
same,Mode of inhibition,[1],Noncompetitive
same,Mode of inhibition,[1]; listed as gallic acid,noncompetitive inhibitor
same,Ki,[1],7.2 ± 1.4 µM
same,IC50,[2],2.2 ± 0.2 µM
same,Inhibition of ARG-1,[3],did not significantly inhibit
same,inhibition at 1000 µM,[3],20%
Oc1cc(O)c2c(c1)O[C@H](c1ccc(O)c(O)c1)[C@H](O)C2 [(−)-epicatechin],Leishmanicidal activity / effect on growth of the parasite,[4],little effect on the growth of the parasite
same,Inhibition of ARG-1,[3],did not significantly inhibit
same,inhibition at 1000 µM,[3],22%
Oc1cc(O)c2c(c1)O[C@H](c1ccc(O)c(O)c1)[C@@H](O)C2 [(+)-catechin],Leishmanicidal activity / effect on growth of the parasite,[4],little effect on the growth of the parasite
same,Inhibition of ARG-1,[3],did not significantly inhibit
same,inhibition at 1000 µM,[3],26%
"O=C(OC1Cc2c(O)cc(O)cc2OC1c1cc(O)c(O)c(O)c1)c1cc(O)c(O)c(O)c1 (single isomer, unassigned; (-)) [EGCG, (−)-Epigallocatechin-3-gallate]",Ki',[1],12.5 ± 0.4 µM
same,Mode of inhibition,[1],mixed inhibitor
same,Ki,[1],4 ± 0.5 µM
same,Leishmanicidal activity / effect on growth of the parasite,[4],shows leishmanicidal activity
same,IC50,[2],3.8 ± 0.1 µM
same,Effect on parasite mitochondria,L. (L.) amazonensis,"damages mitochondria, contributing to the death of the parasite"
same,Inhibition of ARG-1,[3],did not significantly inhibit
same,inhibition at 1000 µM,[3],29%
